As a reminder, the IC50 is the point on the concentration scale where inhibition reaches its midpoint. As a reminder, the AC50 is the concentration giving half of the maximal activity seen. As usually defined, the EC50 is the concentration that produces a half-maximal response.

Activity calls are given as the source filed them.

One assay deals with Genome polyprotein (dengue virus type 2, UniProt P29990). The assay can be described thus: flavivirus cap methylation enzyme inhibition – biochemical, confirmation dose response, primary screen (AID 588689). The assay is classed as functional.
Assay [1] in a line: blockers of HIV-1 envelope-mediated cell-cell fusion – cherry-pick, dose response (AID 652057). The assay is classed as functional, cell-based.
Assay [2] is described as follows: blockers of HIV-1 ZM109 envelope-driven cell-cell fusion – HeLa effector, CEM target cells, luciferase, cherry-pick, dose response (AID 652058).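 Note: luciferase signal from HIV-1 Env mediated cell-cell fusion of effector and target cells.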 The assay is classed as functional, cell-based.
Assay [3] in a line: off-target signal loss in HeLa-CEM21 co-culture – HeLa F-luc CTL cells, cherry-picked, counter-screen for HIV-1 Env fusion inhibitor project, dose response (AID 652040).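 Note: potency for signal decrease marking cytotoxic or nonspecific inhibition.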 The assay is classed as functional, cell-based. A general note: Counterscreens check selectivity or assay interference.
Assay [4] in a line: HIV-1 AD8 envelope cell-cell fusion blockers – cherry-pick, dose response (AID 652062).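 Note: luciferase signal from cell-cell fusion driven by HIV-1 clade B AD8 Env; potency is for inhibitors of fusion seen as a drop in luminescence.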 The assay is classed as functional, cell-based.
The nature of the next assay: cells. The assay is classed as functional, cell-based. As to conditions: HEK-CNG.
A further assay deals with T1, Galanin receptor type 3 (Homo sapiens, UniProt O60755).
T1 sequence (O60755 whole entry): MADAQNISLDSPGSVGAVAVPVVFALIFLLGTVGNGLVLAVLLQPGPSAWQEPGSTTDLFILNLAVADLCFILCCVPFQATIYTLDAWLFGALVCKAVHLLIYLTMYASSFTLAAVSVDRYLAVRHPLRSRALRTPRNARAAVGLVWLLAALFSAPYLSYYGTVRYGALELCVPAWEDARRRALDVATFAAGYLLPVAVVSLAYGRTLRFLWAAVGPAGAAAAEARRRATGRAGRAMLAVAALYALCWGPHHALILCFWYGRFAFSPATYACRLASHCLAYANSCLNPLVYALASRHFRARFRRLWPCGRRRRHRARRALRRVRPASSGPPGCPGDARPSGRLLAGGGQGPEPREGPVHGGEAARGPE
The assay can be described thus: Fluorescence-based cell-based primary high throughput dose response assay to identify antagonists of the Galanin Receptor 3 (GalR3). The assay is classed as functional.

A further assay has as its system H9c2. The assay can be described thus: cells. The assay is classed as functional, cell-based. To be noted: Rattus norvegicus, H9c2, Myocardium.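 Note: confirmatory concentration-response retest of ultra-high-throughput screening hits for modulation of myocardial damage; cell death induced by hydrogen peroxide oxidative stress; compound pretreatment for 60 min then peroxide exposure for 2 h; potency is for protecting the cells against peroxide damage rather than for killing them.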
Assay [5] in a line: NIH3T3 cell viability loss – ATP luminescence, mouse fibroblasts, counter-screen, dose response (AID 2010).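 Note: cells exposed to compound for about 90 hours before reading.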 The assay is classed as functional, cell-based.
Assay [6] is described as follows: Trypanosoma cruzi growth suppression in host cells – NIH3T3 host cells, beta-gal luminescence, confirmation (AID 2044).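 Note: intracellular parasites grown in NIH/3T3 mouse fibroblasts as host cells; luminescent beta-galactosidase reporter signal from transgenic T. cruzi replicating inside host cells; inhibitors lower the luminescence signal.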 The assay is classed as functional, cell-based.
The target of assay [7] is T2, Replicative DNA helicase DnaB (Mycobacterium tuberculosis, UniProt P9WMR3).
T2 sequence (P9WMR3 whole entry): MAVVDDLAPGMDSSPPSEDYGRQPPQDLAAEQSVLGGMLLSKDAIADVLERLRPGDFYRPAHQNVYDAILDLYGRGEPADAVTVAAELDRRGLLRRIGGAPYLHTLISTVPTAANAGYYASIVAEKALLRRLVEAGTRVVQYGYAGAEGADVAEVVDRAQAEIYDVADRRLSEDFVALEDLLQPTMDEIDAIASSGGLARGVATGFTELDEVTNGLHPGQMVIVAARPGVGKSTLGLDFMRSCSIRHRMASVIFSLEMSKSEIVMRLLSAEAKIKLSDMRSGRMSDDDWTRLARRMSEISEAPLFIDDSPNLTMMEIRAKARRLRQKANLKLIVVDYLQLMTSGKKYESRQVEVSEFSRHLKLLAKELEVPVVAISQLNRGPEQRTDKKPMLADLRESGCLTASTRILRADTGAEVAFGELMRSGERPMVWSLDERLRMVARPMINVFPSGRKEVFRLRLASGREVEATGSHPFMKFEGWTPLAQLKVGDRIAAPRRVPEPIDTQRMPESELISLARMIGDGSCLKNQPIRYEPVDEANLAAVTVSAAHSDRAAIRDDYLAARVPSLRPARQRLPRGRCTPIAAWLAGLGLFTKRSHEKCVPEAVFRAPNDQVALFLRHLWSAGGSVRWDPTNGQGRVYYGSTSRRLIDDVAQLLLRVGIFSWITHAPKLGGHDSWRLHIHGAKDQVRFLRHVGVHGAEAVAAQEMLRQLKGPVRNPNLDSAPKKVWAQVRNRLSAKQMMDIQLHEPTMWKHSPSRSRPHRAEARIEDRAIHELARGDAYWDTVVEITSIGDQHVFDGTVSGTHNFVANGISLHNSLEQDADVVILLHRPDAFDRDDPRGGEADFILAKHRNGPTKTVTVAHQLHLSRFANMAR
Description: DnaB intein splicing inhibitors, dose response, biochemical, cell-free fluorescence (AID 449749). The assay is classed as functional.

For assay [8], the system named is BJ. Description: BJ-TERT-LT-ST fibroblast viability loss – cell-based, RAS-independent, luminescence, dose response (AID 1935).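 Note: BJ fibroblasts immortalized with TERT plus LT and ST oncogenes.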 The assay is classed as functional, Homo sapiens. To be noted: Homo sapiens, BJ.
In assay [9] the test system is BJ. Description: cells. The assay is classed as functional, cell-based, Homo sapiens. As to conditions: Homo sapiens, BJ.
Assay [10] deals with T3, Heat shock factor protein 1 (Mus musculus, UniProt P38532).
T3 sequence (P38532 whole entry): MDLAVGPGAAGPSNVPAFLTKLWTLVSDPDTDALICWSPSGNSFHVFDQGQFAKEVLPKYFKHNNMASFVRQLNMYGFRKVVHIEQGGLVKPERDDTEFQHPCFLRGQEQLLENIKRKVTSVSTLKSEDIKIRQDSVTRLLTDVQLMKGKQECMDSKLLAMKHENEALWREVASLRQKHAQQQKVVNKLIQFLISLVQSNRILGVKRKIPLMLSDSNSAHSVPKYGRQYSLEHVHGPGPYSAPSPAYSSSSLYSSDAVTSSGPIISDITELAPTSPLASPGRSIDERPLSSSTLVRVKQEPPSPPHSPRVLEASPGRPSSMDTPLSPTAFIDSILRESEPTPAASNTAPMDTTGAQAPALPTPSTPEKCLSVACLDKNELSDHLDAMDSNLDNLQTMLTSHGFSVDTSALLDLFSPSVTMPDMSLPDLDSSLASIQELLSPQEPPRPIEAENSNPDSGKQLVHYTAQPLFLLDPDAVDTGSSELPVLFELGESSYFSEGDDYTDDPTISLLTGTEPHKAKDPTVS
Description: enhancement of HSF1-driven luciferase signal – cell-based, NIH3T3, luminescence, dose retest, confirmation (AID 435004).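 Note: stress induced by proteasome inhibitor MG132 added 30 min after compound; luciferase reporter driven by HSF1 response element in NIH3T3 cells; actives raise luminescence as potentiators of the MG132 stress response.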 The assay is classed as functional.

Assay [11] has as its system BJ. Description: BJ-TERT fibroblast viability loss – cell-based, RAS-independent, luminescence, dose response (AID 1933). The assay is classed as functional, Homo sapiens. To be noted: Homo sapiens, BJ.
Assay [12] is described as follows: DRD fibroblast viability loss – cell-based, non-viral oncogenic, luminescence, dose response (AID 1934). To be noted: Homo sapiens. The assay is classed as functional.
The target of the next assay is T4, Protein RecA (Mycobacterium tuberculosis, UniProt P9WHJ3).
T4 sequence (P9WHJ3 whole entry): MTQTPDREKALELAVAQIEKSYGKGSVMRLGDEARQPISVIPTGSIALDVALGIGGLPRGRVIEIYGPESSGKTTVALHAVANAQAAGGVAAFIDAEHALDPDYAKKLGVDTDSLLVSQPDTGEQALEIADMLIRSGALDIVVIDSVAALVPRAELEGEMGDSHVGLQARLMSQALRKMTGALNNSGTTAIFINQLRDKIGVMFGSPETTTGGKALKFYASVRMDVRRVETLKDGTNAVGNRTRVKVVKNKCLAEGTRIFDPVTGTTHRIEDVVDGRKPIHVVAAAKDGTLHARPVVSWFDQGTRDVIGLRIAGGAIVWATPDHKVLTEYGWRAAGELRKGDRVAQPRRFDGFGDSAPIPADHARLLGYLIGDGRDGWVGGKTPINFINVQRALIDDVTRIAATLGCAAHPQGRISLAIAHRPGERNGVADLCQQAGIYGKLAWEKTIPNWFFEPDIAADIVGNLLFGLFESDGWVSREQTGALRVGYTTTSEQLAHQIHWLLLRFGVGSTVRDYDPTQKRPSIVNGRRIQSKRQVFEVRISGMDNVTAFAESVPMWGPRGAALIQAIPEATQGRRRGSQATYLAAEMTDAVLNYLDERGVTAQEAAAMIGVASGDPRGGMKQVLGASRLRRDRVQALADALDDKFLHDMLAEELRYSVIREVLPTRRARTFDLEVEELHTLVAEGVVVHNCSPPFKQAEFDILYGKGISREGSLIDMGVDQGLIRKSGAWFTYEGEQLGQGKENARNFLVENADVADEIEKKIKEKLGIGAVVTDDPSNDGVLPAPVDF
The assay can be described thus: Fluorescence Cell-Free Homogeneous Dose Retest to Identify Inhibitors of RecA-Intein Splicing Activity. [Related pubchem assays (depositor defined):AID2097, AID2223, AID489010, AID492950]. The assay is classed as functional.

Assay [13] deals with Glucose-6-phosphate 1-dehydrogenase (Homo sapiens, UniProt P11413). Description: inhibition of Homo sapiens G6PD, dose series – biochemical, fluorescence, selectivity assay for P. falciparum G6PD inhibitor project, dose response (AID 504792). The assay is classed as functional.
The target of another assay is Cytochrome P450 2D6 (Homo sapiens, UniProt P10635).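 Note: CYP2D6 member of a cytochrome P450 panel assay.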
Another assay concerns the target T5, Cytochrome P450 1A2 (Homo sapiens, UniProt P05177).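 Note: PubChem cytochrome P450 panel assay, CYP1A2 panel member.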
T5 sequence (P05177 whole entry): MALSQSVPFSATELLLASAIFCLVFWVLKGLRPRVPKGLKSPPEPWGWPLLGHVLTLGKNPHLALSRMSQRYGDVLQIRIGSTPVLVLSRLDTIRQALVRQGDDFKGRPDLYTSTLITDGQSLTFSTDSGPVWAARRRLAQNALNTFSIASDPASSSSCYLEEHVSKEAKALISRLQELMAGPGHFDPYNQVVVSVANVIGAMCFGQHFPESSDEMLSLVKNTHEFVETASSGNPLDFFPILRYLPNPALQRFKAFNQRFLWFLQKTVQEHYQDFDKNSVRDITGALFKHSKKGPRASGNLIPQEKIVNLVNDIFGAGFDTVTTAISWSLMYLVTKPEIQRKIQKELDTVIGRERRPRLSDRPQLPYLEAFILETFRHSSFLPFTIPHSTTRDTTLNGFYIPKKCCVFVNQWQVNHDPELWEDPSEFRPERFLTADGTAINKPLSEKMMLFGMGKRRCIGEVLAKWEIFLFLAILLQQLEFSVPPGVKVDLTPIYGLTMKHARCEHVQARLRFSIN

The target of assay [14] is Induced myeloid leukemia cell differentiation protein Mcl-1 (Homo sapiens, UniProt Q07820). The assay is classed as functional.
Assay [15] concerns the target T6, Carboxy-terminal domain RNA polymerase II polypeptide A small phosphatase 1 (Homo sapiens, UniProt Q9GZU7).
T6 sequence (Q9GZU7 whole entry): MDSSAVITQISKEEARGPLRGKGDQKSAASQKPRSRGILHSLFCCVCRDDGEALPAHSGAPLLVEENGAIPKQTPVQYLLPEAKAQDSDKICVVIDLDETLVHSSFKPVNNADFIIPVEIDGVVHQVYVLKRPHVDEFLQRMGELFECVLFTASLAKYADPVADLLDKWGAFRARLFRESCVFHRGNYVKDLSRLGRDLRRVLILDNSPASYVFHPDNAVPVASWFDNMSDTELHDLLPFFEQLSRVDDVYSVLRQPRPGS
The assay can be described thus: CTDSP1 inhibitors, concentration-response, biochemical, absorbance readout, ultra-high-throughput screen actives (AID 540297). The assay is classed as functional.

In assay [16] the target is DNA (cytosine-5)-methyltransferase 1 (Homo sapiens, UniProt P26358). Description: inhibition of DNA methylation by DNMT1 – biochemical, fluorescent molecular beacon, confirmation (AID 602386). The assay is classed as functional.
Sequence of DNA (cytosine-5)-methyltransferase 1 (P26358 whole entry): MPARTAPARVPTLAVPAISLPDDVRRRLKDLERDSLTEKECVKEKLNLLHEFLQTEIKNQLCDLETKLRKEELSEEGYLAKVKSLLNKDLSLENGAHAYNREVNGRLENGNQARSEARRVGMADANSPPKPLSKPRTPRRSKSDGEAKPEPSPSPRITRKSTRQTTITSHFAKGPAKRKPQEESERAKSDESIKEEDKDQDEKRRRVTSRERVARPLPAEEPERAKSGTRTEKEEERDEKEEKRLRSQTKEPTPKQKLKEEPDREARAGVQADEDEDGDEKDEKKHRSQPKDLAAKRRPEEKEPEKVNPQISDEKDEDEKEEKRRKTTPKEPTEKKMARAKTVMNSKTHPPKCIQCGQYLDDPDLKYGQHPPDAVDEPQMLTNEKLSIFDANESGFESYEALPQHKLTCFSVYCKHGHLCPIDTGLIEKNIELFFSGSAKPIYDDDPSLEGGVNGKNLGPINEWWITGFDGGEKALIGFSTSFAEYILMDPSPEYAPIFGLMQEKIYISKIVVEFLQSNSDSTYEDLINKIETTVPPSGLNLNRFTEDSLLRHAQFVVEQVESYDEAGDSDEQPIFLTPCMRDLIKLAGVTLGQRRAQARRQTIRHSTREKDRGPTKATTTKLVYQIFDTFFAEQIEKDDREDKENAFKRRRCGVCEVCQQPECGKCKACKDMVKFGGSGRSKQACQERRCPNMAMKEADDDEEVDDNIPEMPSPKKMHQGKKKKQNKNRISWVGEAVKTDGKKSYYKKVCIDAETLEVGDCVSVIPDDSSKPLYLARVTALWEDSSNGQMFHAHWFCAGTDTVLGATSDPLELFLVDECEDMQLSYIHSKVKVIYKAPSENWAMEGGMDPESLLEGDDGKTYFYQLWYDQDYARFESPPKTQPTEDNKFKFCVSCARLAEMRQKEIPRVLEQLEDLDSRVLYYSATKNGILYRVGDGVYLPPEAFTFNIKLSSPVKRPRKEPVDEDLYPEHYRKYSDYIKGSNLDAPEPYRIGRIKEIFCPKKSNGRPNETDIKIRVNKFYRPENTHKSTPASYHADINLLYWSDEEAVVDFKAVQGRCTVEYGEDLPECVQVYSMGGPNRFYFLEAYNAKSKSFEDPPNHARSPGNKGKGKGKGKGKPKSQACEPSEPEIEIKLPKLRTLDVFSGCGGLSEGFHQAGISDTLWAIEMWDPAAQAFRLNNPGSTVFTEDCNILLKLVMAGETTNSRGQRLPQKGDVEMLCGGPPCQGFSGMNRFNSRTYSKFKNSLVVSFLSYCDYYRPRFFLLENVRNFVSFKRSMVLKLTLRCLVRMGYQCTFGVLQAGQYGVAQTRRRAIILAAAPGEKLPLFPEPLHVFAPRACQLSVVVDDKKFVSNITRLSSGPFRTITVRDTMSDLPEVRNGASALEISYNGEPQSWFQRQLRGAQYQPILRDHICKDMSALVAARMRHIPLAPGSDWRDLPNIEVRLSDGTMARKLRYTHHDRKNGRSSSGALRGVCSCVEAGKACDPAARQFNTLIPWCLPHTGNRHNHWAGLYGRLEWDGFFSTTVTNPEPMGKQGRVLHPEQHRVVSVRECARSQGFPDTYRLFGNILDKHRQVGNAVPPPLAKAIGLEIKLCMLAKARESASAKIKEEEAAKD

Sequence of Genome polyprotein (P29990 2492-3391 limits assumed): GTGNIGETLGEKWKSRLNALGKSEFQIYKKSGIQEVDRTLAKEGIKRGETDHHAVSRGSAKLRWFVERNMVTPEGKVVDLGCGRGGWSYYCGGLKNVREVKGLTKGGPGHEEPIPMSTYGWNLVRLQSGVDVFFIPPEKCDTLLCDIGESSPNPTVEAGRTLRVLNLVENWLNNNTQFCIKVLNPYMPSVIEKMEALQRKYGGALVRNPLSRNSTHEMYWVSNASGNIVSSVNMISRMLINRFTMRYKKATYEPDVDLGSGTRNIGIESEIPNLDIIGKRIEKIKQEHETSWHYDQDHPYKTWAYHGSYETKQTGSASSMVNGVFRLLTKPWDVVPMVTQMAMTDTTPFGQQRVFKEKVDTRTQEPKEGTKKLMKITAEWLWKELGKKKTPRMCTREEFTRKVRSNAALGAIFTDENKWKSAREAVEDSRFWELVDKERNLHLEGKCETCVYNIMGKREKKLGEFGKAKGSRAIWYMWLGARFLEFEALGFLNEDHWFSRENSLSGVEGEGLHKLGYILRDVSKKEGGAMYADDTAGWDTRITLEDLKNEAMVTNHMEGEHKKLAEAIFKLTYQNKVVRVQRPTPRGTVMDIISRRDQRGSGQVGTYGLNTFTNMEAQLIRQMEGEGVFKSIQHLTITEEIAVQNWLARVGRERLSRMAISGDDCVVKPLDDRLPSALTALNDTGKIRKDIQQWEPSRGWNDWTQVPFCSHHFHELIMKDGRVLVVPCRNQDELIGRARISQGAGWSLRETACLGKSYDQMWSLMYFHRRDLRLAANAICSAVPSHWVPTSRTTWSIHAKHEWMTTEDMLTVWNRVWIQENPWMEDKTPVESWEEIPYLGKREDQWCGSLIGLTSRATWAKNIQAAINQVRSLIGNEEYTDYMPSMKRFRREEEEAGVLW
Sequence of Glucose-6-phosphate 1-dehydrogenase (P11413 whole entry): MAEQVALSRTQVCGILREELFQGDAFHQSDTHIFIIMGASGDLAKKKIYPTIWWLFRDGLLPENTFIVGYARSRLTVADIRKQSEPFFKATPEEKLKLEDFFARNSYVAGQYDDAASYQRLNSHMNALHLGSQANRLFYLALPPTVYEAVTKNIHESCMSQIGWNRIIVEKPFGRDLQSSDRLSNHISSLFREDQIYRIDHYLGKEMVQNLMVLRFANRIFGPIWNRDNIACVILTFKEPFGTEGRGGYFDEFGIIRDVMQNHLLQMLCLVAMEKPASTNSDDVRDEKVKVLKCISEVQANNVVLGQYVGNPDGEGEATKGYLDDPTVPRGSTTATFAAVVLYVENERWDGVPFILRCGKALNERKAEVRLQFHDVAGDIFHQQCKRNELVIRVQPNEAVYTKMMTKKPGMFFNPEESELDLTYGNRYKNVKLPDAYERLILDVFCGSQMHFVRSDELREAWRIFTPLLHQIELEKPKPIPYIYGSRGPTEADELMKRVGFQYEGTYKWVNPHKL
Sequence of Cytochrome P450 2D6 (P10635 whole entry): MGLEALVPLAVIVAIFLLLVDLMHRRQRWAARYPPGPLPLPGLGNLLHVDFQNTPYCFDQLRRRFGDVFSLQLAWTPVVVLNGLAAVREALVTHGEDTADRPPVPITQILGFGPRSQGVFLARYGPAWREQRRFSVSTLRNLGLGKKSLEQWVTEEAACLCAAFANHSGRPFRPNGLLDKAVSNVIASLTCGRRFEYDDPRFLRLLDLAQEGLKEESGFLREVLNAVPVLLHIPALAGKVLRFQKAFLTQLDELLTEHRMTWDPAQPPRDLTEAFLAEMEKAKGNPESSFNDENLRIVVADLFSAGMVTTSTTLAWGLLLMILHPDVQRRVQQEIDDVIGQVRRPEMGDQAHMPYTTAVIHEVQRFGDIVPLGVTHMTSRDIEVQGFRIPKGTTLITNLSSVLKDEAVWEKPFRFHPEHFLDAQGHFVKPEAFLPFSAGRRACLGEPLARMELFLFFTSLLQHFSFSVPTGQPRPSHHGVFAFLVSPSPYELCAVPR
Sequence of Induced myeloid leukemia cell differentiation protein Mcl-1 (Q07820 whole entry, the tested form may be a part): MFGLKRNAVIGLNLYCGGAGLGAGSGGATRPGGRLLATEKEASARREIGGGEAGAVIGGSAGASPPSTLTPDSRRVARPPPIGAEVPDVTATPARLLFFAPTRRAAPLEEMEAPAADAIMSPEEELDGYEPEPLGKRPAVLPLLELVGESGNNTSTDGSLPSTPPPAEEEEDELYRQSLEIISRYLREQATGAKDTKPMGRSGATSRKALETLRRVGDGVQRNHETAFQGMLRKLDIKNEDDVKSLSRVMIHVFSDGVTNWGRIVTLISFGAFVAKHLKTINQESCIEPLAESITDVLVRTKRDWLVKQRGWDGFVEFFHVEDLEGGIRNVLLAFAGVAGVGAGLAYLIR

For `O=C(O)CN1C(=O)/C(=C\c2cccc(OCc3ccccc3F)c2)SC1=S`, the IC50 at Genome polyprotein is 38.2 µM (active).
As to `COc1ccc2nc(O)c(CN(Cc3cccs3)Cc3nnnn3Cc3ccccc3)cc2c1`, the concentration at half-maximal activity (AC50) in assay [1] was 3.01 µM (active); in [2], 5.4 µM (active); in [3], 4.44 µM (active); in assay [4] it was 4.94 µM (active).
Consider `COc1cccc(Cn2nc(C(=O)O)c3ccccc3c2=O)c1`, for which the EC50 in “cells” was > 29.9 µM (inactive). Moreover, the figures for the IC50 on Galanin receptor type 3 and in the assay on H9c2 were > 29.9 µM (inactive) and > 79 µM (inactive), respectively.
Turning to `O=C(COC(=O)c1ccc2c(c1[N+](=O)[O-])C(=O)c1ccccc1C2=O)NC1CC1`, the half-maximal effective concentration (EC50) in assay [5] was 9.54 µM (active); in [6], 4.65 µM (active); in the assay with BJ [8], > 150 µM (not active); with BJ [9], > 150 µM (not active); in assay [10], 17 µM (active); in the assay on BJ [11] it was > 150 µM (not active). Besides, the EC50 is > 150 µM (not active) in assay [12] and 0.238 µM (active) at Protein RecA. For the same compound, in assay [7], the AC50 was 3.81 µM (active). Besides, the IC50 in [13] was > 80 µM (inactive).
`CC1(C)CC(=O)C(=Cc2cn(CCC#N)nc2-c2ccc(F)cc2)C(=O)C1`: on Genome polyprotein, the IC50 was 52.8 µM (active).
As for `COCCN(C(=O)COC(=O)C12CC3CC(CC(Cl)(C3)C1)C2)c1c(N)n(Cc2ccccc2)c(=O)[nH]c1=O`, the half-maximal activity concentration (AC50) in [1] is 4.61 µM (active); in assay [2], 10.2 µM (active); in assay [3], 10.7 µM (active); in assay [4], 1.44 µM (active).
With `O=C(CCN1C(=O)S/C(=C\c2ccccc2)C1=O)Nc1ccc(S(=O)(=O)Nc2nccs2)cc1`, the AC50 at Cytochrome P450 2D6 was 6.31 µM (inconclusive); on Cytochrome P450 1A2 it was 31.6 µM (inconclusive). In addition, the concentration for half-maximal inhibition (IC50) in [14] is 7.24 µM (active); on Genome polyprotein it was > 100 µM (active).
As to `O=CC(O)C1OC(=O)C(O)C1O` (stereo not drawn), the IC50 was 4.05 µM (active) in assay [15] and 14.4 µM (active) in assay [16].
Consider `CC(C)CCN(N=O)[C@@H](Cc1ccccc1)CN(N=O)[C@@H](Cc1ccccc1)CN(C)N=O`, for which the AC50 in assay [1] is 5.26 µM (active); in [2], 6.6 µM (active); in assay [3], 34.7 µM (active); in assay [4] it was 5.64 µM (active).

The record behind these values is ChEMBL document CHEMBL1201862, “PubChem BioAssay data set” (2004).
